Experimental findings from patent publication US12486254B2, “Uracil derivatives for stimulating read-through of premature termination codons” (Southern Research Institute, priority 2022, dated 2025) are described below.

The subject of the assay is W134X-CF#14 FRT. The assay can be described thus: Read-through of a premature termination codon, W134X-CF#14 FRT data, with G418. Conditions: in presence of G418. In kind it is cell-based. How it is done:
The compounds shown in Table 1 were evaluated for their ability to stimulate read-through of a premature termination codon, and their respective activities are shown in Tables 2 and 3 below.

A value given as a limit tells only on which side of the number the result lay.

For `CCn1c(=O)c(C(=O)CNC2CCCCC2)c(N)n(Cc2ccccc2)c1=O` [1.13], the EC50 stood at 174 µM.
The result for `CC(C)N(CC(N)=O)CC(=O)c1c(N)n(Cc2ccccc2)c(=O)n(C)c1=O` [1.21] reads 43.2 µM.
The result for `CCn1c(=O)c(C(=O)CN(CCNC(=O)OC(C)(C)C)C(C)C)c(N)n(Cc2ccccc2)c1=O` [1.26] reads 155 µM; that for `CCn1c(=O)c(C(=O)CN(CC(N)=O)C(C)(C)C)c(N)n(Cc2ccccc2)c1=O` [1.32], 72.3 µM; that for `CCn1c(=O)c(C(=O)CN2CCC[C@@H]2C(N)=O)c(N)n(Cc2ccccc2)c1=O` [1.34], 53 µM.
Regarding `CCN(CC(=O)c1c(N)n(Cc2ccccc2)c(=O)n(CC)c1=O)CC(=O)c1c(N)n(Cc2ccccc2)c(=O)n(CC)c1=O` [1.37], the EC50 is 12.9 µM.
To `CCn1c(=O)c(C(=O)CN(C)CC(=O)c2c(N)n(Cc3ccccc3)c(=O)n(CC)c2=O)c(N)n(Cc2ccccc2)c1=O` [1.38] belongs 11.9 µM.
The result for `CCn1c(=O)c(C(=O)CN(C)CC(N)=O)c(N)n(Cc2ccccc2)c1=O` [1.41] reads 157 µM.
To `Cn1c(=O)c(C(=O)CN2CCN(c3ccccc3F)CC2)c(N)n(Cc2ccccc2)c1=O` [1.43] belongs 49.3 µM; to `CC(C)n1c(=O)c(C(=O)CN2CCCCC2C(N)=O)c(N)n(Cc2ccccc2)c1=O` (stereo not shown) [1.44], 22.7 µM; to `NC(=O)C1CCCCN1CC(=O)c1c(N)n(Cc2ccccc2)c(=O)n(C2CC2)c1=O` (stereo not shown) [1.45], no less than 100 µM.
Take `NC(=O)C1CCCCN1CC(=O)c1c(N)n(C2CC2)c(=O)n(Cc2ccccc2)c1=O` (stereo not shown) [1.46]: the EC50 is no less than 100 µM.
The result for `CCn1c(=O)c(C(=O)CN2CCCC[C@H]2C(N)=O)c(N)n(Cc2ccccc2)c1=O` [1.49] reads 59.4 µM; that for `CCn1c(=O)c(C(=O)CN2CCN(C(=O)OC(C)(C)C)CC2C(N)=O)c(N)n(Cc2ccccc2)c1=O` (stereo not shown) [1.52], no less than 100 µM.
Regarding `CC1Cc2ccccc2N1CC(=O)c1c(N)n(Cc2ccccc2)c(=O)n(C)c1=O` (stereo not shown) [1.61], the concentration giving a half-maximal response (EC50) was determined as 32.3 µM.
With `CCn1c(=O)c(C(=O)CN2CCCC2c2cccn2C)c(N)n(Cc2ccccc2)c1=O` (stereo not shown) [1.63], the EC50 is 79.9 µM.
For the compound `CCn1c(=O)c(C(=O)CN2CCCCC2C(=O)OC)c(N)n(Cc2ccccc2)c1=O` (stereo not shown) [1.68], the EC50 was 19.7 µM.
As for `CCn1c(=O)c(C(=O)CN2CCCCC2C(=O)NC(C)C)c(N)n(Cc2ccccc2)c1=O` (stereo not shown) [1.70], the EC50 is 27.9 µM.
To `CCn1c(=O)c(C(=O)CN(C(C)C)C(C)C(N)=O)c(N)n(Cc2ccccc2)c1=O` (stereo not shown) [1.71] belongs 70.4 µM; to `CC(C)Cn1c(=O)c(C(=O)CN2CCCCC2C(N)=O)c(N)n(Cc2ccccc2)c1=O` (stereo not shown) [1.75], 28 µM.
To `CCN(CC(=O)c1c(N)n(Cc2ccccc2)c(=O)n(CC)c1=O)C(C(N)=O)C(C)C` (stereo not shown) [1.77] belongs 31.2 µM; to `CCn1c(=O)c(C(=O)CN2CCCCC2C(=O)NC(C)(C)C)c(N)n(Cc2ccccc2)c1=O` (stereo not shown) [1.79], 49.3 µM; to `CCNC(=O)C1CCCCN1CC(=O)c1c(N)n(Cc2ccccc2)c(=O)n(CC)c1=O` (stereo not shown) [1.80], 3.89 µM.
For the compound `CCN(CC)C(=O)C1CCCCN1CC(=O)c1c(N)n(Cc2ccccc2)c(=O)n(CC)c1=O` (stereo not shown) [1.81], the EC50 was 3.92 µM.
To `CCn1c(=O)c(C(=O)CN2CCCCC2C(N)=O)c(N)n(CC2CCCCC2)c1=O` (stereo not shown) [1.84] belongs 48.2 µM; to `CCn1c(=O)c(C(=O)CN2CCCCC2C(=O)N2CCCC2)c(N)n(Cc2ccccc2)c1=O` (stereo not shown) [1.85], 28.1 µM; to `CCn1c(=O)c(C(=O)CN2CCCCC2C(=O)N(C(C)C)C(C)C)c(N)n(Cc2ccccc2)c1=O` (stereo not shown) [1.88], 53.8 µM.
The result for `NC(=O)C1CCCCN1CC(=O)c1c(N)n(Cc2ccccc2F)c(=O)n(Cc2ccccc2F)c1=O` (stereo not shown) [1.92] reads 24.2 µM.
The result for `NC(=O)C1CCCCN1CC(=O)c1c(N)n(Cc2cccc(F)c2)c(=O)n(Cc2cccc(F)c2)c1=O` (stereo not shown) [1.95] reads 21.1 µM.
For `CCn1c(=O)c(C(=O)CN2CCCCC2C(=O)Nc2ccccc2)c(N)n(Cc2ccccc2)c1=O` (stereo not shown) [1.97], the EC50 is 62.5 µM.
The result for `CCn1c(=O)c(C(=O)CN2CCCC2C(=O)N(C)C)c(N)n(Cc2ccccc2)c1=O` (stereo not shown) [1.98] reads 43.1 µM; that for `CCN(CC)C(=O)C1CCCN1CC(=O)c1c(N)n(Cc2ccccc2)c(=O)n(CC)c1=O` (stereo not shown) [1.99], 28.3 µM; that for `CC(C)N(CC(N)=O)CC(=O)c1c(N)n(Cc2cccs2)c(=O)n(Cc2cccs2)c1=O` [1.100], 16.5 µM.
The result for `NC(=O)C1CCCCN1CC(=O)c1c(N)n(Cc2cccs2)c(=O)n(Cc2cccs2)c1=O` (stereo not shown) [1.101] reads 12.8 µM; that for `CN(C)C(=O)C1CCCCN1CC(=O)c1c(N)n(Cc2cccs2)c(=O)n(Cc2cccs2)c1=O` (stereo not shown) [1.102], 6.2 µM; that for `Cc1ccccc1Cn1c(N)c(C(=O)CN2CCCCC2C(N)=O)c(=O)n(Cc2ccccc2C)c1=O` (stereo not shown) [1.108], 25 µM.
The result for `Cc1cccc(Cn2c(N)c(C(=O)CN3CCCCC3C(N)=O)c(=O)n(Cc3cccc(C)c3)c2=O)c1` (stereo not shown) [1.109] reads 7.47 µM; that for `COc1ccccc1Cn1c(N)c(C(=O)CN2CCCCC2C(N)=O)c(=O)n(Cc2ccccc2OC)c1=O` (stereo not shown) [1.110], 25 µM; that for `CCn1c(=O)c(C(=O)CN(CC(N)=O)C(C)C)c(N)n(Cc2cccs2)c1=O` [1.111], 5.19 µM.
For the compound `Cc1ccc(Cn2c(N)c(C(=O)CN3CCCCC3C(N)=O)c(=O)n(Cc3ccc(C)cc3)c2=O)cc1` (stereo not shown) [1.114], the EC50 stood at 18.1 µM.
To `COc1ccc(Cn2c(N)c(C(=O)CN3CCCCC3C(N)=O)c(=O)n(Cc3ccc(OC)cc3)c2=O)cc1` (stereo not shown) [1.115] belongs 31.9 µM; to `COc1cccc(Cn2c(N)c(C(=O)CN3CCCCC3C(N)=O)c(=O)n(Cc3cccc(OC)c3)c2=O)c1` (stereo not shown) [1.116], 23.9 µM; to `CCn1c(=O)c(C(=O)CN2CCCCC2C(N)=O)c(N)n(Cc2cccc(C)c2)c1=O` (stereo not shown) [1.119], 13.3 µM.
On to `CCn1c(=O)c(C(=O)CN2CCCC2C(=O)N2CCOCC2)c(N)n(Cc2ccccc2)c1=O` (stereo not shown) [1.121], for which the EC50 was 61.3 µM.
To `CCn1c(=O)c(C(=O)CN2CCCC2C(=O)N2CCCCC2)c(N)n(Cc2ccccc2)c1=O` (stereo not shown) [1.122] belongs 30.4 µM; to `CCn1c(=O)c(C(=O)CN2CCCC2C(=O)NCc2ccccc2)c(N)n(Cc2ccccc2)c1=O` (stereo not shown) [1.124], 24.1 µM; to `CCn1c(=O)c(C(=O)CN2CCCCC2C(N)=O)c(N)n(Cc2cccc(F)c2)c1=O` (stereo not shown) [1.134], 17.4 µM.
The result for `CCn1c(=O)c(C(=O)CN2CCCCC2C(=O)NCc2ccccc2C)c(N)n(Cc2ccccc2)c1=O` (stereo not shown) [1.135] reads 13.5 µM.
On to `CCn1c(=O)c(C(=O)CN2CCCCC2C(=O)NCCc2ccccc2)c(N)n(Cc2ccccc2)c1=O` (stereo not shown) [1.136], for which the EC50 came out at 8.25 µM.
The result for `CCn1c(=O)c(C(=O)CN2CCCCC2C(N)=O)c(N)n(Cc2ccccc2F)c1=O` (stereo not shown) [1.137] reads 5.08 µM.
The result for `CCn1c(=O)c(C(=O)CN2CCCCC2C(=O)N2CCc3ccccc3C2)c(N)n(Cc2ccccc2)c1=O` (stereo not shown) [1.141] reads 12.9 µM.
To `CCn1c(=O)c(C(=O)CN2CCCC[C@@H]2C(=O)NCc2ccccc2F)c(N)n(Cc2ccccc2)c1=O` [1.142] belongs 13.1 µM; to `CCn1c(=O)c(C(=O)CN2CCCC[C@@H]2C(=O)N2CCc3ccccc3C2)c(N)n(Cc2ccccc2)c1=O` [1.143], 6.48 µM; to `CCn1c(=O)c(C(=O)CN2CCCC[C@@H]2C(=O)NCc2cccc(F)c2)c(N)n(Cc2ccccc2)c1=O` [1.144], 9.35 µM.
As to `CCn1c(=O)c(C(=O)CN2CCCCC2C(N)=O)c(N)n(Cc2ccc(F)cc2F)c1=O` (stereo not shown) [1.146], the EC50 is 8.5 µM.
To `CCn1c(=O)c(C(=O)CN2CCCCC2C(N)=O)c(N)n(Cc2ccc(F)c(F)c2)c1=O` (stereo not shown) [1.147] belongs 52.5 µM; to `CCn1c(=O)c(C(=O)CN(CC(N)=O)C(C)C)c(N)n(Cc2ccc(F)cc2C)c1=O` [1.153], 64.8 µM; to `CCn1c(=O)c(C(=O)CN2CCCCC2C(N)=O)c(N)n(Cc2ccc(F)cc2OC)c1=O` (stereo not shown) [1.154], 68.5 µM.
As for `CCn1c(=O)c(C(=O)CN2CCCC[C@@H]2C(=O)NCc2ccc(F)cc2)c(N)n(Cc2ccccc2)c1=O` [1.155], the EC50 stood at 3.16 µM.
To `CCn1c(=O)c(C(=O)CN2CCCC[C@@H]2C(=O)NCC(C)C)c(N)n(Cc2ccccc2)c1=O` [1.156] belongs 11.4 µM; to `CCn1c(=O)c(C(=O)CN2CCCC[C@@H]2C(=O)NCC(C)(C)C)c(N)n(Cc2ccccc2)c1=O` [1.157], 19.5 µM.
To `CCn1c(=O)c(C(=O)CN2CCCC[C@@H]2C(=O)NCC(F)(F)F)c(N)n(Cc2ccccc2)c1=O` [1.159] belongs 4.91 µM; to `NC(=O)C1CCCCN1CC(=O)c1c(N)n(CC2CCC2)c(=O)n(Cc2ccc(F)cc2)c1=O` (stereo not shown) [1.160], 28.4 µM; to `CCn1c(=O)c(C(=O)CN2CCCCC2C(N)=O)c(N)n(Cc2ccc(F)cc2C)c1=O` (stereo not shown) [1.161], 13.9 µM.
The result for `CCn1c(=O)c(C(=O)CN2CCCCC2C(N)=O)c(N)n(Cc2ccc(F)c(C)c2)c1=O` (stereo not shown) [1.163] reads 8.05 µM; that for `CCn1c(=O)c(C(=O)CN(CC(N)=O)C(C)C)c(N)n(Cc2ccc(F)c(OC)c2)c1=O` [1.170], no less than 100 µM; that for `CCn1c(=O)c(C(=O)CN2CCCCC2C(N)=O)c(N)n(Cc2ccc(F)cc2Cl)c1=O` (stereo not shown) [1.173], 42.1 µM.
For `CCn1c(=O)c(C(=O)CN2CCCC[C@@H]2C(N)=O)c(N)n(Cc2ccc(C(F)(F)F)cc2)c1=O` [1.178], the EC50 came out at 21.2 µM.
To `CCOc1ccc(C(C)NCC(=O)c2c(N)n(Cc3ccc(F)cc3)c(=O)n(CC)c2=O)cc1OCC` (stereo not shown) [1.179] belongs 10.1 µM; to `CCn1c(=O)c(C(=O)CN2CCCC[C@@H]2C(=O)NCc2ccc(F)cc2)c(N)n(Cc2ccc(F)cc2)c1=O` [1.189], 2.56 µM.
The result for `CCn1c(=O)c(C(=O)CN2CCCCC2)c(N)n(Cc2ccc(F)cc2)c1=O` [1.193] reads 47.2 µM; that for `CCn1c(=O)c(C(=O)CN2CCCC[C@@H]2C(=O)NCC(F)(F)F)c(N)n(Cc2ccc(F)cc2)c1=O` [1.197], 3.91 µM; that for `CC[C@H]1CCCCN1CC(=O)c1c(N)n(Cc2ccc(F)cc2)c(=O)n(CC)c1=O` [1.199], 9.5 µM.

The EC50 is the concentration at which the effect is half-maximal.
